Reference: BindingDB's records for doi:10.1021/jm00117a021 (Syntex Research, 1988)

How the values were obtained:
[1] = target: Adenosylhomocysteinase (Oryctolagus cuniculus); experiment: Inhibition of S-adenosyl-homocysteine (AdoHcy)hydrolase from rabbit erythrocytes
[2] = target: Adenosylhomocysteinase (Oryctolagus cuniculus); experiment: as above; remark: listed apart in the source

Structure (SMILES) | IC50 [1] | IC50 [2]
Nc1ncnc2c1ncn2C1C(O)C(O)C(CO)C1O (configuration not stated) | 28 µM | –
Nc1ncnc2c1ncn2[C@@H](C=O)O[C@@H](C=O)CO [Adenosine dialdehyde] | – | 0.04 µM
